Laboratory results reported in US9000159B2 (Glenmark Pharmaceuticals, S.A., priority 2009, dated 2015).
pIC50: −log10 of the molar value.

Target: T1, Human TRPA1 (Homo sapiens, UniProt O75762)
T1 construct: expressed in transfected cells; host or cells: CHO cells
Experiment: 45Calcium uptake assay: inhibition of AITC induced cellular uptake of radioactive calcium
Assay type: cell-based
Conditions: AITC (30 μM) induced 45Ca uptake, Human TRPA1 expressing CHO cells; for inhibition at 1 µM: 1.0 μM test compound, read-out: Percentage inhibition at 1.0 μM; for inhibition at 10 µM: 10.0 μM test compound, read-out: Percentage inhibition at 10.0 μM; for pIC50: read-out: Human IC50 value (range)
How it was run: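 CHO cells stably expressing human TRPA1 (~50,000/well) preincubated 10 min with compound (0.5% DMSO, medium with 0.1% BSA, 1.8 mM CaCl2), then 30 μM AITC plus 5 μCi/ml 45Ca2+ for 3 min. Lysate radioactivity counted by scintillation; IC50 by nonlinear regression of % maximal uptake.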

T1 sequence (O75762 whole entry): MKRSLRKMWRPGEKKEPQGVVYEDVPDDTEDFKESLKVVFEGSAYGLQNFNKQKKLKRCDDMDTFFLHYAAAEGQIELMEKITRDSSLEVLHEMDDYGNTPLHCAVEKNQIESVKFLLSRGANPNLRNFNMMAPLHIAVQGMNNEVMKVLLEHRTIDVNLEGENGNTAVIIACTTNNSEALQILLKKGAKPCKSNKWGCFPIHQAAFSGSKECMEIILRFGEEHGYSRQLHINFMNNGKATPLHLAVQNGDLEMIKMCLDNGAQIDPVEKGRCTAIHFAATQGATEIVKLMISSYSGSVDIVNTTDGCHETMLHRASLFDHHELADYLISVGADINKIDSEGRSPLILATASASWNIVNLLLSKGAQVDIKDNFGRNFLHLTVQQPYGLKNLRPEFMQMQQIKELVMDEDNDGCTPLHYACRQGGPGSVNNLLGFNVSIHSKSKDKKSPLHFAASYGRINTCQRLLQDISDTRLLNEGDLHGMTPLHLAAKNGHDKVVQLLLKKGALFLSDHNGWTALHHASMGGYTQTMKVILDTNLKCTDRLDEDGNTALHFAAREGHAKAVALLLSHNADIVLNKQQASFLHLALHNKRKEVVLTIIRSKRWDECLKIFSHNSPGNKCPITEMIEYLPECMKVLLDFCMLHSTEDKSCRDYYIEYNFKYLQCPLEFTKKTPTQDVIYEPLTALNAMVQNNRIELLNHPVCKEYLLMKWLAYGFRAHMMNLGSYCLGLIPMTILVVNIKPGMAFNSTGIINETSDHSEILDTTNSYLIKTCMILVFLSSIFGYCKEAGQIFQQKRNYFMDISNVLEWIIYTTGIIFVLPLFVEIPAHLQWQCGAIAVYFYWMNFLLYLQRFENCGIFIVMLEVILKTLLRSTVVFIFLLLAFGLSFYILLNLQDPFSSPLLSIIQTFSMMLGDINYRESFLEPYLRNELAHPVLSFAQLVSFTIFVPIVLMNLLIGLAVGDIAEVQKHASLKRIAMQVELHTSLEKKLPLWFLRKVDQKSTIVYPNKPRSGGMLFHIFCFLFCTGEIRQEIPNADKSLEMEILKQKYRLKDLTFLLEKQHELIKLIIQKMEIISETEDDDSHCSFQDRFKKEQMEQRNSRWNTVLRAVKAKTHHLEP

Row | SMILES | inhibition at 1 µM | inhibition at 10 µM | pIC50
1 | Cn1c(=O)c2c(cnn2CC(=O)Nc2nc(-c3ccc(F)c(C(F)(F)F)c3F)cs2)n(C)c1=O [Example 71, N-{4-[2,4-Difluoro-3-(trifluoromethyl)phenyl]-1,3-thiazol-2-yl}-2-(4,6-dimethyl-5,7-dioxo-4,5,6,7-tetrahydro-1H-pyrazolo[4,3-d]pyrimidin-1-yl)acetamide] | 78.2% | 99.3% | 7.00 to 7.30
2 | Cn1nc2c(c1CC(=O)Nc1nc(-c3ccc(F)cc3F)cs1)c(=O)n(C)c(=O)n2C [Example 50, N-[4-(2,4-Difluorophenyl)-1,3-thiazol-2-yl]-2-(2,5,7-trimethyl-4,6-dioxo-4,5,6,7-tetrahydro-2H-pyrazolo[3,4-d]pyrimidin-3-yl)acetamide] | 0% | 19.8% | –
3 | Cn1c(=O)c2c(cnn2CC(=O)Nc2nc(-c3cc(F)c(OCC(C)(C)C)c(F)c3)cs2)n(C)c1=O [Example 78, N-{4-[4-(2,2-Dimethylpropoxy)-3,5-difluorophenyl]-1,3-thiazol-2-yl}-2-(4,6-dimethyl-5,7-dioxo-4,5,6,7-tetrahydro-1H-pyrazolo[4,3-d]pyrimidin-1-yl)acetamide] | 100% | 99.7% | > 7.30
4 | Cn1nc2c(c1CC(=O)Nc1nc(-c3ccc(F)c(C(F)(F)F)c3)cs1)c(=O)n(C)c(=O)n2C [Example 53, N-{4-[4-Fluoro-3-(trifluoromethyl)phenyl]-1,3-thiazol-2-yl}-2-(2,5,7-trimethyl-4,6-dioxo-4,5,6,7-tetrahydro-2H-pyrazolo[3,4-d]pyrimidin-3-yl)acetamide] | 97.2% | 98.6% | > 7.30
5 | Cn1nc2c(c1CC(=O)Nc1nc(-c3ccc(Cl)cc3)cs1)c(=O)n(C)c(=O)n2C [Example 46, N-[4-(4-Chlorophenyl)-1,3-thiazol-2-yl]-2-(2,5,7-trimethyl-4,6-dioxo-4,5,6,7-tetrahydro-2H-pyrazolo[3,4-d]pyrimidin-3-yl)acetamide] | 89.3% | 96.6% | < 7.00
6 | Cn1c(=O)c2c(cnn2CC(=O)Nc2nc(-c3ccc(OCC(C)(C)C)c(F)c3)cs2)n(C)c1=O [Example 69, N-{4-[4-(2,2-Dimethylpropoxy)-3-fluorophenyl]-1,3-thiazol-2-yl}-2-(4,6-dimethyl-5,7-dioxo-4,5,6,7-tetrahydro-1H-pyrazolo[4,3-d]pyrimidin-1-yl)acetamide] | 97.3% | 99.8% | > 7.30
7 | Cn1c(=O)c2c(ccn2CC(=O)Nc2nc(-c3cc(F)c(OCC4CC4)c(F)c3)cs2)n(C)c1=O [Example 17, 2-(1,3-Dimethyl-2,4-dioxo-1,2,3,4-tetrahydro-5H-pyrrolo[3,2-d]pyrimidin-5-yl)-N-{4-[4-(cyclopropylmethoxy)-3,5-difluorophenyl]-1,3-thiazol-2-yl}acetamide] | 33.5% | 49.9% | –
8 | CCN(CC)Cc1cn(CC(=O)Nc2nc(-c3ccc(C(F)(F)F)c(F)c3)cs2)c2c(=O)n(C)c(=O)n(C)c12 [Example 40, N-{4-[3-Fluoro-4-(trifluoromethyl)phenyl]-1,3-thiazol-2-yl}-2-{7-[(diethylamino)methyl]-1,3-dimethyl-2,4-dioxo-1,2,3,4-tetrahydro-5H-pyrrolo[3,2-d]pyrimidin-5-yl}acetamide] | 48.5% | 86.2% | –
9 | Cn1c(=O)c2c(ccn2CC(=O)Nc2nc(-c3cc(F)c(OCC(F)(F)F)c(Cl)c3)cs2)n(C)c1=O [Example 16, N-{4-[3-Chloro-5-fluoro-4-(2,2,2-trifluoroethoxy)phenyl]-1,3-thiazol-2-yl}-2-(1,3-dimethyl-2,4-dioxo-1,2,3,4-tetrahydro-5H-pyrrolo[3,2-d]pyrimidin-5-yl)acetamide] | 95% | 97.1% | > 7.30
10 | Cc1cc2c(c(=O)n(C)c(=O)n2C)n1CC(=O)Nc1cc(-c2ccc(Br)cc2)on1 [Example 33, N-[5-(4-bromophenyl)isoxazol-3-yl]-2-(1,3,6-trimethyl-2,4-dioxo-1,2,3,4-tetrahydro-5H-pyrrolo[3,2-d]pyrimidin-5-yl)acetamide] | 0% | 28.3% | –
11 | Cn1nc2c(c1CC(=O)Nc1nc(-c3ccc(C(F)(F)F)c(F)c3)cs1)c(=O)n(C)c(=O)n2C [Example 54, N-[4-(3-Fluoro-4-trifluoromethylphenyl)-1,3-thiazol-2-yl]-2-(2,5,7-trimethyl-4,6-dioxo-4,5,6,7-tetrahydro-2H-pyrazolo[3,4-d]pyrimidin-3-yl)acetamide] | 97.7% | 99.6% | > 7.30
12 | Cn1c(=O)c2c(ccn2CC(=O)Nc2nc(-c3cc(F)c(OCc4ccc(C(F)(F)F)cc4)c(F)c3)cs2)n(C)c1=O [Example 21, 2-(1,3-Dimethyl-2,4-dioxo-1,2,3,4-tetrahydro-5H-pyrrolo[3,2-d]pyrimidin-5-yl)-N-{4-[3,5-difluoro-4-[4-(trifluoromethyl)benzyloxy]phenyl)-1,3-thiazol-2-yl}acetamide] | 11.2% | 16.2% | –
13 | Cc1cc2c(c(=O)n(C)c(=O)n2C)n1CC(=O)Nc1nc(-c2ccc(C(F)(F)F)c(F)c2)cs1 [Example 22, N-[4-(3-Fluoro-4-trifluoromethylphenyl)-1,3-thiazol-2-yl]-2-(1,3,6-trimethyl-2,4-dioxo-1,2,3,4-tetrahydro-5H-pyrrolo[3,2-d]pyrimidin-5-yl)acetamide] | 81.4% | 99.4% | > 7.30
14 | Cn1c(=O)c2c(c(Br)cn2CC(=O)Nc2nc(-c3ccc(C(F)(F)F)c(F)c3)cs2)n(C)c1=O [Example 37, 2-(7-Bromo-1,3-dimethyl-2,4-dioxo-1,2,3,4-tetrahydro-5H-pyrrolo[3,2-d]pyrimidin-5-yl)-N-{4-[3-fluoro-4-(trifluoromethyl)phenyl]-1,3-thiazol-2-yl}acetamide] | 52.9% | 95.4% | –
15 | Cn1nc2c(c1CC(=O)Nc1nc(-c3ccc(OC(F)(F)F)c(F)c3)cs1)c(=O)n(C)c(=O)n2C [Example 59, N-{4-[3-Fluoro-4-(trifluoromethoxy)phenyl]-1,3-thiazol-2-yl}-2-(2,5,7-trimethyl-4,6-dioxo-4,5,6,7-tetrahydro-2H-pyrazolo[3,4-d]pyrimidin-3-yl)acetamide] | 97.6% | 99.3% | > 7.30
16 | Cc1cc2c(c(=O)n(C)c(=O)n2C)n1CC(=O)Nc1nc(-c2cc(F)c(OCC(F)(F)F)c(F)c2)cs1 [Example 26, N-[4-(3,5-Difluoro-4-(2,2,2-trifluoroethoxy)phenyl)-1,3-thiazol-2-yl]-2-(1,3,6-trimethyl-2,4-dioxo-1,2,3,4-tetrahydro-5H-pyrrolo[3,2-d]pyrimidin-5-yl)acetamide] | 95.3% | 98.3% | > 7.30
17 | Cn1c(=O)c2c(cnn2CC(=O)Nc2nc(-c3ccc(C(F)(F)F)c(F)c3)cs2)n(C)c1=O [Example 68, 2-(4,6-Dimethyl-5,7-dioxo-4,5,6,7-tetrahydro-1H-pyrazolo[4,3-d]pyrimidin-1-yl)-N-{4-[3-fluoro-4-(trifluoromethyl)phenyl]-1,3-thiazol-2-yl}acetamide] | 91.3% | 99.4% | < 7.00
18 | Cn1c(=O)c2c(cnn2CC(=O)Nc2nc(-c3cc(F)c(OCC(C)(C)C)c(Cl)c3)cs2)n(C)c1=O [Example 80, N-{4-[3-Chloro-4-(2,2-dimethylpropoxy)-5-fluorophenyl]-1,3-thiazol-2-yl}-2-(4,6-dimethyl-5,7-dioxo-4,5,6,7-tetrahydro-1H-pyrazolo[4,3-d]pyrimidin-1-yl)acetamide] | 100% | 100% | > 7.30
19 | Cn1c(=O)c2c(ccn2CC(=O)Nc2nc(-c3cc(F)c(OCCC(F)(F)F)c(F)c3)cs2)n(C)c1=O [Example 12, N-{4-[3,5-Difluoro-4-(3,3,3-trifluoropropoxy)phenyl]-1,3-thiazol-2-yl}-2-(1,3-dimethyl-2,4-dioxo-1,2,3,4-tetrahydro-5H-pyrrolo[3,2-d]pyrimidin-5-yl)acetamide] | 97.4% | 96% | > 7.30
20 | Cn1nc2c(c1CC(=O)Nc1nc(-c3cccc(OC(F)(F)F)c3)cs1)c(=O)n(C)c(=O)n2C [Example 49, N-{4-[3-(Trifluoromethoxy)phenyl]-1,3-thiazol-2-yl}-2-(2,5,7-trimethyl-4,6-dioxo-4,5,6,7-tetrahydro-2H-pyrazolo[3,4-d]pyrimidin-3-yl)acetamide] | 52.3% | 88.5% | –
21 | Cn1c(=O)c2c(ccn2CC(=O)Nc2nc(-c3cc(Cl)c(OCCC(F)(F)C(F)(F)F)c(Cl)c3)cs2)n(C)c1=O [Example 15, N-{4-[3,5-Dichloro-4-(3,3,4,4,4-pentafluorobutoxy)phenyl]-1,3-thiazol-2-yl}-2-(1,3-dimethyl-2,4-dioxo-1,2,3,4-tetrahydro-5H-pyrrolo[3,2-d]pyrimidin-5-yl)acetamide] | 76.5% | 92.5% | 7.00 to 7.30
22 | CC(C)CCOc1c(F)cc(-c2csc(NC(=O)Cn3ccc4c3c(=O)n(C)c(=O)n4C)n2)cc1F [Example 7, N-{4-[3,5-Difluoro-4-(3-methylbutoxy)phenyl]-1,3-thiazol-2-yl}-2-(1,3-dimethyl-2,4-dioxo-1,2,3,4-tetrahydro-5H-pyrrolo[3,2-d]pyrimidin-5-yl)acetamide] | 35.5% | 37.3% | –
